ChEMBL document CHEMBL1150677, “Novel tetramic acids and pyridone alkaloids, militarinones B, C, and D, from the insect pathogenic fungus Paecilomyces militaris” (J Nat Prod, 2003)
The source made the active and inactive calls. No cut-off for these calls is given here.

What was measured:
PC-12 [1] = assay: Neuritogenic activity in rat PC12 cells at 100 uM after 16 hrs; assay type: functional, cell-based
PC-12 [2] = assay: Cytotoxicity against rat PC12 cells assessed as effect on LDH release at 100 uM after 24 hrs; assay type: cell-based; settings: pc-12, 24 h
PC-12 [3] = assay: Cytotoxicity against rat PC12 cells assessed as effect on LDH release at 33 uM after 24 hrs; assay type: cell-based; settings: pc-12, 24 h
PC-12 [4] = assay: Cytotoxicity against rat PC12 cells assessed as effect on LDH release after 24 hrs; assay type: cell-based; settings: pc-12, 24 h

Row | SMILES | Activity (PC-12 [1]) | Activity (PC-12 [2]) | Activity (PC-12 [3]) | Activity (PC-12 [4])
1 | CC[C@@H](C)C[C@@H](C)/C=C(C)/C=C/C=C/C(=O)c1c(O)c(-c2ccc(O)cc2)c[nH]c1=O (relative stereo) [MILITARINONE B] | inactive | 74% | 30.7% | –
2 | CC[C@@H](C)C[C@@H](C)/C=C(C)/C=C/C=C/C(O)=C1\C(=O)NC(C(O)c2ccc(O)cc2)C1=O (relative stereo) [MILITARINONE C] | Active | 16.8% | – | –
3 | CC[C@@H](C)C[C@@H](C)/C=C(C)/C=C/C=C/C(O)=C1\C(=O)NC(Cc2ccc(O)cc2)C1=O (relative stereo) [MILITARINONE D] | Active | – | – | Non-toxic
